Measurements reported in US12577227B2, “WDR5 inhibitors and modulators” (Vanderbilt University, priority 2019, dated 2026).

Test system: MV4:11 human cancer cell lines
Assay: Cellular viability / anti-proliferative activity (CellTiter-Glo)
Assay type: cell-based
Conditions: MV4-11, 120 h, MV-4-11 cells, 5 day protocol, mean of minimum two replicates, read-out: GI50 on cellular proliferation of MV4:11 human cancer cell lines
Description: Cellular Viability of Human Tumor Cell Lines
Anti-Proliferative Activity Using MLL-Harboring Cell Lines.
MV-4-11 and K562 cells are grown in IMDM media supplemented with 10% FBS and […], Molm-13 cells are cultured in RPMI-1640 media supplemented with 10% FBS and 1% o penicillin/streptomycin. Viability assays are performed by dispensing 200 cells at 7200 cells/mL into each well of an opaque 384-well plate and adding compounds at the indicated concentrations in a final volume of 32 μL and a final concentration of DMSO of 0.3% for all samples. A certain range of compound concentrations is made through a series of 2-fold dilutions starting 30 μM at the highest, total 22 dilutions. After a set incubation period, 5 day protocol, the viability of cells in each well is assessed using the CellTiter-Glo assay (Promega), read on a 96 Microplane Luminometer (Cytation 3, BioTek). Serial dilutions of each cell type are performed in all assays to generate standard curves and the final densities of cells are determined within the dynamic range of the instrument. GI50 values are calculated based on XLfit software (IDBS, Guildford, UK) with Sigmoidal Dose-Response Model. Each compound is tested in minimum of two replicates. Data are expressed as mean.

GI50 [µM] | SMILES
0.0035 | Cc1cc(C)nc(CN2CCOc3c(cc(Cn4ccn(C)c4=N)cc3-c3ccc(F)cc3C)C2=O)c1 [Example 12, 4-((4,6-Dimethylpyridin-2-yl)methyl)-9-(4-fluoro-2-methylphenyl)-7-((2-imino-3-methyl-2,3-dihydro-1H-imidazol-1-yl)methyl)-3,4-dihydrobenzo[f][1,4]oxazepin-5(2H)-one]
0.458 | CCc1cc(C(=O)NCCOC)c2nccc(N3CCOc4c(cc(Cn5ccnc5)cc4-c4cn(C)nc4C(F)(F)F)C3=O)c2c1 [Example 74, 4-(7-((1H-imidazol-1-yl)methyl)-9-(1-methyl-3-(trifluoromethyl)-1H-pyrazol-4-yl)-5-oxo-2,3-dihydrobenzo[f][1,4]oxazepin-4(5H)-yl)-6-ethyl-N-(2-methoxyethyl)quinoline-8-carboxamide]
0.086 | COc1cc(CN2CCOc3c(cc(Cn4cnn(C)c4=N)cc3-c3ccc(F)cc3C)C2=O)cc(OC)c1 [Example 6, 4-(3,5-Dimethoxybenzyl)-9-(4-fluoro-2-methylphenyl)-7-((5-imino-1-methyl-1,5-dihydro-4H-1,2,4-triazol-4-yl)methyl)-3,4-dihydrobenzo[f][1,4]oxazepin-5(2H)-one]
> 0.94 | COc1cc(Cn2cnc3c(-c4ccc(F)cc4C)cc(Cn4ccc5cccnc54)cc3c2=O)cc(OC)c1 [Example 5, 6-((1H-Pyrrolo[2,3-b]pyridin-1-yl)methyl)-3-(3,5-dimethoxybenzyl)-8-(4-fluoro-2-methylphenyl)quinazolin-4(3H)-one]
2.43 | COc1cc(CN2C[C@H](C)Oc3c(cc(Cn4ccnc4C)cc3-c3ccc(F)cc3C)C2=O)cc(OC)c1 [Example 36, (S)-4-(3,5-Dimethoxybenzyl)-9-(4-fluoro-2-methylphenyl)-2-methyl-7-((2-methyl-1H-imidazol-1-yl)methyl)-3,4-dihydrobenzo[f][1,4]oxazepin-5(2H)-one]
0.57 | COc1ccnc(Cn2cnc3c(-c4cn(C)nc4C(F)(F)F)cc(Cn4ccnc4C)cc3c2=O)c1 [Example 55, 3-((4-Methoxypyridin-2-yl)methyl)-6-((2-methyl-1H-imidazol-1-yl)methyl)-8-(1-methyl-3-(trifluoromethyl)-1H-pyrazol-4-yl)quinazolin-4(3H)-one]
0.255 | CCc1cc(C(=O)NCCN(C)C)c2nccc(N3CCOc4c(cc(Cn5ccnc5)cc4-c4cn(C)nc4C(F)(F)F)C3=O)c2c1 [Example 73, 4-(7-((1H-imidazol-1-yl)methyl)-9-(1-methyl-3-(trifluoromethyl)-1H-pyrazol-4-yl)-5-oxo-2,3-dihydrobenzo[f][1,4]oxazepin-4(5H)-yl)-N-(2-(dimethylamino)ethyl)-6-ethylquinoline-8-carboxamide]
0.259 | COc1cc(CN2CCOc3c(cc(Cn4ccoc4=N)cc3-c3ccc(F)cc3C)C2=O)cc(OC)c1 [Example 9, 4-(3,5-Dimethoxybenzyl)-9-(4-fluoro-2-methylphenyl)-7-((2-iminooxazol-3(2H)-yl)methyl)-3,4-dihydrobenzo[f][1,4]oxazepin-5(2H)-one]
0.063 | Cc1cc(C)nc(CN2CCOc3c(cc(Cn4ccnc4C)cc3-c3cc(Cl)ccc3C)C2=O)c1 [Example 52, 9-(5-Chloro-2-methylphenyl)-4-((4,6-dimethylpyridin-2-yl)methyl)-7-((2-methyl-1H-imidazol-1-yl)methyl)-3,4-dihydrobenzo[f][1,4]oxazepin-5(2H)-one]
0.985 | Cc1cc(C)nc(CN2CCOc3c(cc(Cn4ccnc4C)cc3-c3ccc(F)cc3C)C2=O)c1 [Example 41, 4-((4,6-Dimethylpyridin-2-yl)methyl)-9-(4-fluoro-2-methylphenyl)-7-((2-methyl-1H-imidazol-1-yl)methyl)-3,4-dihydrobenzo[f][1,4]oxazepin-5(2H)-one]
0.079 | COc1cc(CN2CCOc3c(cc(Cn4ccn(C)c4=N)cc3-c3cn(C)nc3C(F)(F)F)C2=O)cc(OC)c1 [Example 16, 4-(3,5-Dimethoxybenzyl)-7-((2-imino-3-methyl-2,3-dihydro-1H-imidazol-1-yl)methyl)-9-(1-methyl-3-(trifluoromethyl)-1H-pyrazol-4-yl)-3,4-dihydrobenzo[f][1,4]oxazepin-5(2H)-one]
0.037 | COc1ccnc([C@H](C)N2CCOc3c(cc(Cn4ccnc4C)cc3-c3cc(C)ccc3C)C2=O)c1 [Example 56, (S)-9-(2,5-Dimethylphenyl)-4-(1-(4-methoxypyridin-2-yl)ethyl)-7-((2-methyl-1H-imidazol-1-yl)methyl)-3,4-dihydrobenzo[f][1,4]oxazepin-5(2H)-one]
0.672 | COc1cc(Cn2cnc3c(-c4ccc(F)cc4C)cc(Cn4cnn(C)c4=N)cc3c2=O)cc(OC)c1 [Example 18, 3-(3,5-Dimethoxybenzyl)-8-(4-fluoro-2-methylphenyl)-6-((5-imino-1-methyl-1,5-dihydro-4H-1,2,4-triazol-4-yl)methyl)quinazolin-4(3H)-one]
0.29 | CCn1cc(-c2cc(Cn3ccnc3)cc3c2NC(=O)CN([C@H](c2cc(OC)ccn2)C2CC2)C3=O)c(C(F)(F)F)n1 [Example 65, (S)-7-((1H-imidazol-1-yl)methyl)-4-(cyclopropyl(4-methoxypyridin-2-yl)methyl)-9-(1-ethyl-3-(trifluoromethyl)-1H-pyrazol-4-yl)-3,4-dihydro-1H-benzo[e][1,4]diazepine-2,5-dione]
0.092 | COc1cc(CN2CNc3c(cc(Cn4ccn(C)c4=N)cc3-c3ccc(F)cc3C)C2=O)cc(OC)c1 [Example 23, 3-(3,5-Dimethoxybenzyl)-8-(4-fluoro-2-methylphenyl)-6-((2-imino-3-methyl-2,3-dihydro-1H-imidazol-1-yl)methyl)-2,3-dihydroquinazolin-4(1H)-one]
0.173 | Cc1cc(C)nc(CN2CCOc3c(cc(Cn4ccn(C)c4=N)cc3-c3cn(C)nc3C(F)(F)F)C2=O)c1 [Example 22, 4-((4,6-Dimethylpyridin-2-yl)methyl)-7-((2-imino-3-methyl-2,3-dihydro-1H-imidazol-1-yl)methyl)-9-(1-methyl-3-(trifluoromethyl)-1H-pyrazol-4-yl)-3,4-dihydrobenzo[f][1,4]oxazepin-5(2H)-one]
0.111 | CCn1cc(-c2cc(Cn3ccnc3C)cc3c2OCCN([C@H](c2cc(OC)ccn2)C2CC2)C3=O)c(C(F)(F)F)n1 [Example 60, (S)-4-(Cyclopropyl(4-methoxypyridin-2-yl)methyl)-9-(1-ethyl-3-(trifluoromethyl)-1H-pyrazol-4-yl)-7-((2-methyl-1H-imidazol-1-yl)methyl)-3,4-dihydrobenzo[f][1,4]oxazepin-5(2H)-one]
0.167 | COc1cc(CN2CC(=O)Nc3c(cc(Cn4ccn(C)c4=N)cc3-c3ccc(F)cc3C)C2=O)cc(OC)c1 [Example 14, 4-(3,5-Dimethoxybenzyl)-9-(4-fluoro-2-methylphenyl)-7-((2-imino-3-methyl-2,3-dihydro-1H-imidazol-1-yl)methyl)-3,4-dihydro-1H-benzo[e][1,4]diazepine-2,5-dione]
0.009 | COc1ccnc([C@H](C)N2CCOc3c(cc(Cn4cnn(C)c4=N)cc3-c3ccc(F)cc3Cl)C2=O)c1 [Example 54, (S)-9-(2-Chloro-4-fluorophenyl)-7-((5-imino-1-methyl-1,5-dihydro-4H-1,2,4-triazol-4-yl)methyl)-4-(1-(4-methoxypyridin-2-yl)ethyl)-3,4-dihydrobenzo[f][1,4]oxazepin-5(2H)-one]
> 0.94 | COc1cc(Cn2cnc3c(-c4ccc(F)cc4C)cc(Cn4ccc5ccccc54)cc3c2=O)cc(OC)c1 [Example 4, 6-((1H-Indol-1-yl)methyl)-3-(3,5-dimethoxybenzyl)-8-(4-fluoro-2-methylphenyl)quinazolin-4(3H)-one]
0.355 | COc1cc(CN2CCOc3c(cc(Cn4ccccc4=N)cc3-c3ccc(F)cc3C)C2=O)cc(OC)c1 [Example 8, 4-(3,5-Dimethoxybenzyl)-9-(4-fluoro-2-methylphenyl)-7-((2-iminopyridin-1(2H)-yl)methyl)-3,4-dihydrobenzo[f][1,4]oxazepin-5(2H)-one]
0.101 | COc1cc(CN2CCOc3c(cc(Cn4cnn(C)c4=N)cc3-c3cn(C)nc3C(F)(F)F)C2=O)cc(OC)c1 [Example 15, 4-(3,5-Dimethoxybenzyl)-7-((5-imino-1-methyl-1,5-dihydro-4H-1,2,4-triazol-4-yl)methyl)-9-(1-methyl-3-(trifluoromethyl)-1H-pyrazol-4-yl)-3,4-dihydrobenzo[f][1,4]oxazepin-5(2H)-one]
1.08 | CCc1nccn1Cc1cc2c(c(-c3cn(C)nc3C(F)(F)F)c1)OCCN(Cc1cc(C)ccn1)C2=O [Example 37, 7-((2-Ethyl-1H-imidazol-1-yl)methyl)-9-(1-methyl-3-(trifluoromethyl)-1H-pyrazol-4-yl)-4-((4-methylpyridin-2-yl)methyl)-3,4-dihydrobenzo[f][1,4]oxazepin-5(2H)-one]
0.022 | COc1cc(CN2CC(C)Oc3c(cc(Cn4ccn(C)c4=N)cc3-c3ccc(F)cc3C)C2=O)cc(OC)c1 (stereo not drawn) [Example 17, 4-(3,5-Dimethoxybenzyl)-9-(4-fluoro-2-methylphenyl)-7-((2-imino-3-methyl-2,3-dihydro-1H-imidazol-1-yl)methyl)-2-methyl-3,4-dihydrobenzo[f][1,4]oxazepin-5(2H)-one]
